# Literature values as cited in patent US20220088213A1, “DRUG DELIVERY SYSTEM USING PH-DEPENDENT CELL-PENETRATING PEPTIDES, AND COMPOSITE THEREOF WITH DRUG” (priority 2019, published 2022).
# Like-named read-outs stand apart in the source and are kept apart here.
# System: cell membrane
# Conditions: cited from earlier work
Substance,cell membrane penetration (acidic pH conditions),cell membrane penetration (neutral pH),cell-penetrating activity (pH dependence)
GALA,penetrates a cell membrane,cannot penetrate the cell membrane,
ATRAM (GLAGLAGLLGLEGLLGLPLGLLEGLWLGLELEGN; Penetrating Peptide),,,exhibits cell-penetrating activity only at a slightly acidic pH
